Test results published in patent US10834946B2, “Flavor composition and edible compositions containing same” (Mars, Incorporated, priority 2013, dated 2020).
Square brackets hold non-standard residues; d marks the D form. Ends that are not written are not given here. pGlu = O=C1CC[C@@H](C(=O)O)N1

How the values were obtained:
[1] = tested on: panelists (salt perception); experiment: Increased Salt Perception Protocol (descriptive sensory panel); type: in vivo, human; details: for Mean salt perception in mouth: scale anchored to 0.35% salt reference = 5.0; for Mean salt perception after expectoration: re-tasting of salt reference (0.35% salt, intensity 5.0)
Protocol: Descriptive Profiles (Flavor and Chemical Feeling Factors) of five use levels of a pGlu-Val-Leu flavor composition were determined. The five use levels were as follows:
Data was collected for the flavor and chemical feeling factors of the product in mouth for each of the five use levels according to the following protocol:
1. Each panelist tasted a salt reference (0.35% salt solution) with a reference salt intensity of 5.0 which provided a baseline for each panelist's Sensory Spectrum for salt intensity.
2. Each panelist tasted a test sample (0.1 ppb, 0.5 ppb, 1.0 ppb, 10.0 ppb or 40.0 ppb all in 0.2% NaCl solution). Only one sample was tasted per session.
3. Each panelist re-tasted the salt reference (5.0 intensity) and rated it for salt intensity as well as any other basic taste, chemical feeling factor, or aromatic perceived. Thus, any increased salt perception as a result of the test sample would be determined, as well as any other perceptions present. Return to Baseline Protocol
The test samples were formulated as follows: […]

[2] = tested on: panelists (salt perception); experiment: Return to Baseline Protocol (saltiness aftertaste, sensory panel); type: in vivo, human; details: salt reference re-tasted at 1 minute intervals until intensity 5.0
Protocol: After evaluating the sample for salt and other perceptions (step 3 above), each panelist re-tasted the salt reference (5.0 intensity) at 1 minute intervals until their perception of the saltiness intensity of the reference returned to 5.0. Each panelist recorded salt intensity at each interval and took qualitative notes on other perceptions seen in aftertaste.

[pGlu]-Val-Leu
Mean salt perception in mouth ([1]; 0.1 ppb peptide in 0.2% NaCl solution): 2.3
Mean salt perception after expectoration ([1]; 0.1 ppb sample): 6.8
perception of salt in-mouth as concentration increased ([1]; 0.1 to 40.0 ppb in 0.2% NaCl solution): did not significantly increase
Mean salt perception in mouth ([1]; 0.5 ppb peptide in 0.2% NaCl solution): 2.8
Mean salt perception after expectoration ([1]; 0.5 ppb sample): 6.4
Mean salt perception in mouth ([1]; 1.0 ppb peptide in 0.2% NaCl solution): 2.3
Mean salt perception after expectoration ([1]; 1.0 ppb sample): 7.5
Mean salt perception in mouth ([1]; 10.0 ppb peptide in 0.2% NaCl solution): 3.1
Mean salt perception after expectoration ([1]; 10.0 ppb sample): 8.2
Mean salt perception in mouth ([1]; 40.0 ppb peptide in 0.2% NaCl solution): 2.8
Mean salt perception after expectoration ([1]; 40.0 ppb sample): 8.3
Salt perception after expectoration ([1]; all samples (0.1 to 40.0 ppb), versus reference intensity 5.0): increased
Mean time needed to return to baseline ([2]; 0.1 ppb sample): 7.6 min
Mean time needed to return to baseline ([2]; 0.5 ppb sample): 9.5 min
Mean time needed to return to baseline ([2]; 1.0 ppb sample): 8.7 min
Mean time needed to return to baseline ([2]; 10.0 ppb sample): 8.6 min
